According to US8633206B2, “Pyrrolo[2,3-D]pyrimidine compounds” (Pfizer Inc., priority 2009, dated 2014):

Experiments:
Type in all cases: biochemical
JAK1 = JAK1 (Homo sapiens (Human), UniProt P23458); assay: JAK enzymatic assay (peptide mobility shift), JAK1; conditions: recombinant JAK1 20 nM, IRS-1 peptide, 240 minutes
Method: (§1) Recombinant JAK1 (Catalog Number PV4775), JAK2 (Catalog Number PV4210) and JAK3 (Catalog Number PV3855) were purchased from (Invitrogen Corporation, Madison, Wis.). […] Adenosine 5′-triphosphate (ATP) was obtained from (Sigma Chemical Company, St. Louis, Mo.). […] Coating Reagent 3 was purchased from (Caliper Life Sciences, Hopkinton, Mass.).
(§2) Compounds were diluted serially in 100% dimethyl sulfoxide and tested in an 11 point dose response in duplicate or quadruplicate (200 nl of compound/DMSO was added per 10 L reaction). […] The assay was run for 240 minutes for JAK1, 150 minutes for JAK2, 90 minutes for JAK3 and 70 minutes for Tyk2. […] The plates were placed on a LabChip 3000 (LC3000) instrument from (Caliper Life Sciences) to measure the formation of phosphorylated peptide. Data was analyzed using Hits Well Analyzer Software from (Caliper Life Sciences) to obtain the amount of product formed.
(§3) Data was then imported into an internal application where each data point is expressed as % inhibition based on uninhibited and no enzyme controls. Dose-response data is then fit using a 4 parameter logistic equation (Equation 1) to determine an IC50.

JAK2 = JAK2 (Homo sapiens (Human), UniProt O60674); assay: JAK enzymatic assay (peptide mobility shift), JAK2; conditions: recombinant JAK2 2 nM, JAKtide peptide, 150 minutes
Description: Recombinant JAK1 (Catalog Number PV4775), JAK2 (Catalog Number PV4210) and JAK3 (Catalog Number PV3855) were purchased from (Invitrogen Corporation, Madison, Wis.). Tyk2 (His-Tyk2 (888-1182, C936S, C1142S)) used in this study was expressed and purified at Pfizer Laboratories. Adenosine 5′-triphosphate (ATP) was obtained from (Sigma Chemical Company, St. Louis, Mo.). […] Coating Reagent 3 was purchased from (Caliper Life Sciences, Hopkinton, Mass.).
A peptide mobility shift assay was used to quantify the phosphorylation of the JAKtide (JAK2 and JAK3) or the IRS-1 peptide (JAK1 and Tyk2). Reactions were carried out in a 384-well plate (Matrical MP-101) in a 10 L total volume. […] Compounds were diluted serially in 100% dimethyl sulfoxide and tested in an 11 point dose response in duplicate or quadruplicate (200 nl of compound/DMSO was added per 10 L reaction). The reactions were initiated by the addition of enzyme to the final concentration of 2 nM JAK2, 1 nM JAK3, 12 nM Tyk2 or 20 nM JAK1. The assay was run for 240 minutes for JAK1, 150 minutes for JAK2, 90 minutes for JAK3 and 70 minutes for Tyk2. The assays were stopped at the specified times with 20 uL of 140 mM HEPES, 22.5 mM EDTA and 0.15% Coating Reagent 3. The plates were placed on a LabChip 3000 (LC3000) instrument from (Caliper Life Sciences) to measure the formation of phosphorylated peptide. Data was analyzed using Hits Well Analyzer Software from (Caliper Life Sciences) to obtain the amount of product formed.
as §3

JAK3 = JAK3 (Homo sapiens (Human), UniProt P52333); assay: JAK enzymatic assay (peptide mobility shift), JAK3; conditions: recombinant JAK3 1 nM, JAKtide peptide, 90 minutes
Method: as §1, §2, §3

Sequence of JAK3 (P52333 781-1124): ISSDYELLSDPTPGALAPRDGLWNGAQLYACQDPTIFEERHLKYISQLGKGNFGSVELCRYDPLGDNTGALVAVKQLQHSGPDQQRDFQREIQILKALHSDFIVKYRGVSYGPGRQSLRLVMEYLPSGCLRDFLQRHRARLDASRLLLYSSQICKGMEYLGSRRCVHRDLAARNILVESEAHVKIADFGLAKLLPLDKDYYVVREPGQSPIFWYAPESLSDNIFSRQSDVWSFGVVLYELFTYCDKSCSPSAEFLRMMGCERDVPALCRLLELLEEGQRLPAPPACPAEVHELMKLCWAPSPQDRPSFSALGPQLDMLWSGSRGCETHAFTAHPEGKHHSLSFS
Sequence of JAK1 (P23458 whole entry): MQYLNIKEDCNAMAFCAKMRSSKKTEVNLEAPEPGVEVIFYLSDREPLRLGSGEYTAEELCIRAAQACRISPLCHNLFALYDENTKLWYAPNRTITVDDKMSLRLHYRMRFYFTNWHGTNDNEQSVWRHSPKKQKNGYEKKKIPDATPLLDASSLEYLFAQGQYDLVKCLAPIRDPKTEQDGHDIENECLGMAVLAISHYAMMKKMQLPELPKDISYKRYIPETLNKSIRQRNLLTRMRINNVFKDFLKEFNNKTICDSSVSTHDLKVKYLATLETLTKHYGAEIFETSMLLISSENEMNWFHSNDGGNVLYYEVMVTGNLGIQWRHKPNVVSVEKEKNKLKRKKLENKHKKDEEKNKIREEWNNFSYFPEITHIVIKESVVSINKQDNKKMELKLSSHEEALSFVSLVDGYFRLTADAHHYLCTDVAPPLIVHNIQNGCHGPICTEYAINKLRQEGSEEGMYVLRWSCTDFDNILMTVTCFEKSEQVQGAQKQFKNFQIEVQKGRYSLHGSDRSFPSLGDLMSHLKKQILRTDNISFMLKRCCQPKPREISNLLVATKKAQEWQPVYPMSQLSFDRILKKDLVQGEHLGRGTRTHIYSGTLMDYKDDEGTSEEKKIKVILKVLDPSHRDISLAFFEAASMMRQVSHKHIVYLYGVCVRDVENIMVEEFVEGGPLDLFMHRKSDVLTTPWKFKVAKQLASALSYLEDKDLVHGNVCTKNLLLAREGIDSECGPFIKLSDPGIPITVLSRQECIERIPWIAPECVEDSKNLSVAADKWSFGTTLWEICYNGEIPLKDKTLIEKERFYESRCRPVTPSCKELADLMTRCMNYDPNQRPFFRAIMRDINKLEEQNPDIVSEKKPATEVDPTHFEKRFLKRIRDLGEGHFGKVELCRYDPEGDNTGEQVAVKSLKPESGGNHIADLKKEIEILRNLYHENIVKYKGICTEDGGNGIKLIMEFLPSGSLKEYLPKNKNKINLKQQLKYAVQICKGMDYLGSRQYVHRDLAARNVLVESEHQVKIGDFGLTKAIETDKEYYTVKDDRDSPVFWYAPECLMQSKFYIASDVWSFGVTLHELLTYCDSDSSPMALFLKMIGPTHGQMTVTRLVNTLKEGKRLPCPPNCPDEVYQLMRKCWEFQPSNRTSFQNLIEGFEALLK
Sequence of JAK2 (O60674 808-1132): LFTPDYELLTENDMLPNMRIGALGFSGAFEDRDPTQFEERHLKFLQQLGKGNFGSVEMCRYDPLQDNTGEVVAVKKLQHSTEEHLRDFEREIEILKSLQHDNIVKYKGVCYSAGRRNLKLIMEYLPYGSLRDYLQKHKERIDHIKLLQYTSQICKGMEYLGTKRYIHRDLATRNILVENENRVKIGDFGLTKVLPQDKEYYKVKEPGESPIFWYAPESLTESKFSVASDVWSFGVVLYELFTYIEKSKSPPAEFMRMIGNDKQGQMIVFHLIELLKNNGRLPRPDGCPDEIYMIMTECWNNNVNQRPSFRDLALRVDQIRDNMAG

Row | SMILES | IC50 (JAK1) [nM] | IC50 (JAK2) [nM] | IC50 (JAK3) [nM]
1 | CN(c1ncnc2[nH]ccc12)[C@H]1CC[C@H](CS(=O)(=O)N2CCCC(Cc3ccccn3)C2)CC1 (stereo partly drawn) [Example 21, N-methyl-N-[trans-4-({[3-(pyridin-2-ylmethyl)-piperidin-1-yl]sulfonyl}-methyl)cyclohexyl]-7H-pyrrolo[2,3-d]pyrimidin-4-amine] | 11.3 | 33 | 592
2 | CN(c1ncnc2[nH]ccc12)[C@H]1CC[C@H](CS(=O)(=O)N2CC[C@H](O)[C@H](O)C2)CC1 [Example 22, (3R,4S)-1-[({trans-4-[methyl(7H-pyrrolo[2,3-d]pyrimidin-4-yl)amino]-cyclohexyl}methyl)sulfonyl]-piperidine-3,4-diol] | 11.5 | 32.5 | 138
3 | CN(c1ncnc2[nH]ccc12)[C@H]1CC[C@H](CS(=O)(=O)N2CCC(C)(O)CC2)CC1 [Example 23, 4-methyl-1-[({trans-4-[methyl(7H-pyrrolo[2,3-d]pyrimidin-4-yl)amino]-cyclohexyl}methyl)sulfonyl]-piperidin-4-ol] | 7.74 | 42.1 | 243
4 | CN(c1ncnc2[nH]ccc12)[C@H]1CC[C@H](CS(=O)(=O)N2CCC(O)(c3ccccc3)CC2)CC1 [Example 24, 1-[({trans-4-[methyl(7H-pyrrolo[2,3-d]pyrimidin-4-yl)amino]cyclohexyl}methyl)-sulfonyl]-4-phenyl-piperidin-4-ol] | 5.03 | 7.42 | 37.4
5 | CN(c1ncnc2[nH]ccc12)[C@H]1CC[C@H](CS(=O)(=O)N2CC[C@H](NC(=O)OC(C)(C)C)C2)CC1 [Example 26, tert-butyl {(3S)-1-[({trans-4-[methyl(7H-pyrrolo[2,3-d]pyrimidin-4-yl)amino]-cyclohexyl}methyl)sulfonyl]-pyrrolidin-3-yl}carbamate] | 1.44 | 48.4 | 230
6 | CN(c1ncnc2[nH]ccc12)[C@H]1CC[C@H](CS(=O)(=O)N2C[C@@H](O)[C@H](c3ccccc3)C2)CC1 [Example 29, (3S,4R)-1-[({trans-4-[methyl(7H-pyrrolo[2,3-d]pyrimidin-4-yl)amino]-cyclohexyl}methyl)sulfonyl]-4-phenylpyrrolidin-3-ol] | 5.22 | 15 | 151
7 | CN(c1ncnc2[nH]ccc12)[C@H]1CC[C@H](CS(=O)(=O)N2CC[C@@H](CO)C2)CC1 [Example 30, {(3R)-1-[({trans-4-[methyl(7H-pyrrolo[2,3-d]pyrimidin-4-yl)amino]-cyclohexyl}methyl)sulfonyl]-pyrrolidin-3-yl}-methanol] | 3.06 | 8.36 | 112
8 | CN(c1ncnc2[nH]ccc12)[C@H]1CC[C@H](CS(=O)(=O)N2CC[C@H](CO)C2)CC1 [Example 31, {(3S)-1-[({trans-4-[methyl(7H-pyrrolo[2,3-d]pyrimidin-4-yl)amino]-cyclohexyl}methyl)sulfonyl]-pyrrolidin-3-yl}-methanol] | 2.88 | 14.4 | 200
9 | CN(c1ncnc2[nH]ccc12)[C@H]1CC[C@H](CS(=O)(=O)N2CC[C@H](CC#N)C2)CC1 [Example 32, {(3R)-1-[({trans-4-[methyl(7H-pyrrolo[2,3-d]pyrimidin-4-yl)amino]-cyclohexyl}methyl)sulfonyl]-pyrrolidin-3-yl}-acetonitrile] | 3.76 | 27.3 | 355
10 | CN(c1ncnc2[nH]ccc12)[C@H]1CC[C@H](CS(=O)(=O)N2C[C@H](CO)[C@H](S(C)(=O)=O)C2)CC1 [Example 33, [(3R,4S)-1-[({trans-4-[methyl(7H-pyrrolo[2,3-d]pyrimidin-4-yl)amino]-cyclohexyl}methyl)sulfonyl]-4-(methylsulfonyl)-pyrrolidin-3-yl]methanol] | 10.4 | 32.2 | 275
